# From patent US20140148336A1, “METHODS OF CONTROLLING FUNGAL PATHOGENS USING POLYENE FUNGICIDES” (priority 2012, published 2014)
# Read-outs that look alike come from different tables or passages of the source.
# Experiments:
# SDS spores = test: Comparison of inoculum rates on treated seeds for control of SDS in planta (Example 6); format: in vivo, Fusarium virguliforme; details: for Root Vigor Average: rating 0-4 (4 = healthy taproot); for Root Rot Average: rating 1-5 (5 = >90% infection)
# Description: The plants were allowed to grow for 18-21 days. The plants were then gently removed and assessed for root rot symptoms, with a rating of 1=0% infection on taproot and lateral roots, a 2=<25% infection, a 3=25-50% infection, a 4=51-90% infection, and a 5=>90% infection. Root vigor was rated such that a rating of 4=healthy taproot and many lateral roots, a 3=fewer lateral roots and some stunting, a 2=fewer or stringy lateral roots and more stunting, 1=thin tap root and only a few lateral roots, and a 0=thin and stunted taproot with 0-3 lateral roots.
# Using a protocol similar to that described in Example 5, natamycin at concentrations of 50 μg, 25 μg, 10 μg, 5 μg, and 1 μg was assessed for the treatment of SDS.
# […] Inoculum rates of 25 g/L inoculum and 8 g/L inoculum were compared, corresponding to approximately 10^5 SDS spores per container and 10^4-10^5 SDS spores per container, respectively. Assessment occurred after 18 and 22 days.
# F. virguliforme = format: in vivo, Fusarium virguliforme; details: 50 mL per cone, 2% low rate infested soil, 18-21 days
# Experimental: Sorghum was prepared for inoculation. One to two liters of sorghum seed was put into spawn bags, autoclaved, then inoculated with 30-45 mL of an SDA spore suspension. Bags were left in a cupboard at room temperature, then shaken and mixed every few days for three weeks until ready. Sorghum inoculum was assessed for the number of spores per gram of seed by hemacytometer. The sorghum grew to 4.57×10^5 spores/g.
# F. virguliforme spores were enumerated before soil inoculation. First, 25 mL of sterile 0.1% Tween 80 in water was added to sterile 50 mL conical tubes. The tubes where weighed. Then several grains of colonized sorghum from the spawn bag were aseptically added. The tubes were re-weighed to find the exact mass of colonized spores added to the tube. The tubes were shaken at 28-30° C. at approximately 250 rpm for 2-4 hours to release spores from the sorghum seed. Samples were then removed from the tubes and spores were quantified using a hemacytometer. F. virguliforme spores were quantified by making a dilution series from each tube onto PDA plates with 100 ppm chloramphenicol antibiotic.
# Soil inoculation began by grounding sorghum grain inoculum in a Waring blender in small batches for 10-20 seconds on the low setting. The ground sorghum was then mixed into Monterey sand fine #60 (Lapis Luster, RMC pacific materials) at either a “2% low rate,” consisting of 2×10^5 spores/cone with 8.9 g/L of sand, or a “5% high rate,” consisting of 5×10^5 spores/cone with 22.5 g/L of sand. The Monterey sand was not pre-sterilized. The ground sorghum inoculum was added on the same day as the experimental set up. In later experiments, ground sorghum inoculum was mixed into sand based on the enumerated spores per gram of inoculum.
# Natamycin solution was added in four different concentrations to four different groups of untreated seeds in “2% low rate” infested soil cones. The four different concentrations were 250 ppm, 100 ppm, 50 ppm, and 25 ppm. Fifty milliliters of the natamycin solutions were used per cone.
# The assays were planted by first moistening infested sand with water at 150 mL per liter of sand and mixing. The cone-shaped containers were filled 1-2 inches at the bottom with a Sunshine #3 potting mix plug in order to keep the sand in the tube. The containers were then filled to within 1-1.5 inches of the top with moistened and infested sand, taking an average of 120-125 mL to fill each container. The containers were then watered. Two soy seeds were planted into each container. […]
# The plants were allowed to grow for 18-21 days. The plants were then gently removed and assessed for root rot symptoms, with a rating of 1=0% infection on taproot and lateral roots, a 2=<25% infection, a 3=25-50% infection, a 4=51-90% infection, and a 5=>90% infection. […]
structure (smiles),measurement,setting,value
"C[C@@H]1C/C=C/C=C/C=C/C=C/[C@H](O[C@@H]2O[C@H](C)[C@@H](O)[C@H](N)[C@@H]2O)C[C@@H]2O[C@](O)(C[C@@H](O)C[C@H]3O[C@@H]3/C=C/C(=O)O1)C[C@H](O)[C@H]2C(=O)O [Natamycin, natamycin]",decrease of root rot symptoms,"SDS spores; both seed treatment experiments, both SDS inoculum rates",no consistent decrease
same,Root Vigor Average,"SDS spores; drench 25 ppm, Inoc Rate 8, IC 2.3",1.9
same,Root Rot Average,"SDS spores; drench 25 ppm, Inoc Rate 8, IC 2.9",2.6
same,Root Vigor Average,"SDS spores; drench 25 ppm, Inoc Rate 25, IC 1.6",2.3
same,Root Rot Average,"SDS spores; drench 25 ppm, Inoc Rate 25, IC 3.9",4.1
same,Root Vigor Average,"SDS spores; seed treatment 1 μg/seed, Inoc Rate 8, IC 2.3",1.9
same,Root Rot Average,"SDS spores; seed treatment 1 μg/seed, Inoc Rate 8, IC 2.9",2.9
same,Root Vigor Average,"SDS spores; seed treatment 1 μg/seed, Inoc Rate 25, IC 1.6",2.1
same,Root Rot Average,"SDS spores; seed treatment 1 μg/seed, Inoc Rate 25, IC 3.9",4.1
same,Root Vigor Average,"SDS spores; seed treatment 5 μg/seed, Inoc Rate 8, IC 2.3",1.4
same,Root Rot Average,"SDS spores; seed treatment 5 μg/seed, Inoc Rate 8, IC 2.9",2.4
same,Root Vigor Average,"SDS spores; seed treatment 5 μg/seed, Inoc Rate 25, IC 1.6",2.6
same,Root Rot Average,"SDS spores; seed treatment 5 μg/seed, Inoc Rate 25, IC 3.9",4.1
same,Root Vigor Average,"SDS spores; seed treatment 10 μg/seed, Inoc Rate 8, IC 2.3",2.2
same,Root Rot Average,"SDS spores; seed treatment 10 μg/seed, Inoc Rate 8, IC 2.9",2.4
same,Root Vigor Average,"SDS spores; seed treatment 10 μg/seed, Inoc Rate 25, IC 1.6",1.9
same,Root Rot Average,"SDS spores; seed treatment 10 μg/seed, Inoc Rate 25, IC 3.9",4.1
same,Root Vigor Average,"SDS spores; seed treatment 25 μg/seed, Inoc Rate 8, IC 2.3",1.8
same,Root Rot Average,"SDS spores; seed treatment 25 μg/seed, Inoc Rate 8, IC 2.9",2.3
same,Root Vigor Average,"SDS spores; seed treatment 25 μg/seed, Inoc Rate 25, IC 1.6",2.2
same,Root Rot Average,"SDS spores; seed treatment 25 μg/seed, Inoc Rate 25, IC 3.9",3.6
same,Root Vigor Average,"SDS spores; seed treatment 50 μg/seed, Inoc Rate 8, IC 2.3",1.9
same,Root Rot Average,"SDS spores; seed treatment 50 μg/seed, Inoc Rate 8, IC 2.9",2.8
same,Root Vigor Average,"SDS spores; seed treatment 50 μg/seed, Inoc Rate 25, IC 1.6",2.1
same,Root Rot Average,"SDS spores; seed treatment 50 μg/seed, Inoc Rate 25, IC 3.9",3.8
same,root rot ratings as compared to the infected control,F. virguliforme; 25 ppm/container,significantly lowering
same,root vigor as compared to the infected control,F. virguliforme; 25 ppm/container,improving
same,root rot ratings as compared to the infected control,F. virguliforme; 50 ppm/container,significantly lowering
same,root vigor as compared to the infected control,F. virguliforme; 50 ppm/container,improving
